US9029384B2, “Phosphatidylinositol 3-kinase inhibitors” (Gilead Calistoga LLC, priority 2012, dated 2015)
pIC50: −log10 of the molar value.

Molecular target: T1, PI3Kδ (Homo sapiens, UniProt O00329)
T1 construct: made in house
Assay: Enzymatic activity of PI3K isoforms, TR-FRET assay (PIP3 formation)
Assay type: biochemical
Conditions: PI3Kδ; TR-FRET, 2×Km ATP, 10 μM PIP2; read-out: IC50
From the text: Enzymatic Activity of PI3K Isoforms
The TR-FRET assay was used to monitor formation of the product 3,4,5-inositol triphosphate molecule (PIP3) as it competed with fluorescently labeled PIP3 for binding to the GRP-1 pleckstrin homology domain protein. An increase in […] product results in a decrease in TR-FRET signal as the labeled fluorophore is displaced from the GRP-1 protein binding site.
Class I PI3K isoforms were expressed and purified as heterodimeric recombinant proteins. All assay reagents and buffers for the TR-FRET assay were purchased from Millipore. […] After an assay reaction time of 30 minutes at 25° C., reactions were terminated with a final concentration of 10 mM EDTA, 10 nM labeled-PIP3, and 35 nM Europium labeled GRP-1 detector protein before reading TR-FRET on an Envision plate reader (Ex: 340 nm; Em: 615/665 nm; 100 μs delay and 500 μs read window).
Data are normalized based on a positive (1 uM wortmanin) and negative (DMSO) controls. The α, β, δ, and γ IC50 values were calculated from the fit of the dose-response curves to a four-parameter equation. IC50 are reported in units of nM.
IC50 values were obtained for all PI3K isoforms (α, β, δ, and γ), and Table 2 summarizes the IC50 data collected for PI3Kδ in this Example B1.

T1 sequence (O00329 whole entry): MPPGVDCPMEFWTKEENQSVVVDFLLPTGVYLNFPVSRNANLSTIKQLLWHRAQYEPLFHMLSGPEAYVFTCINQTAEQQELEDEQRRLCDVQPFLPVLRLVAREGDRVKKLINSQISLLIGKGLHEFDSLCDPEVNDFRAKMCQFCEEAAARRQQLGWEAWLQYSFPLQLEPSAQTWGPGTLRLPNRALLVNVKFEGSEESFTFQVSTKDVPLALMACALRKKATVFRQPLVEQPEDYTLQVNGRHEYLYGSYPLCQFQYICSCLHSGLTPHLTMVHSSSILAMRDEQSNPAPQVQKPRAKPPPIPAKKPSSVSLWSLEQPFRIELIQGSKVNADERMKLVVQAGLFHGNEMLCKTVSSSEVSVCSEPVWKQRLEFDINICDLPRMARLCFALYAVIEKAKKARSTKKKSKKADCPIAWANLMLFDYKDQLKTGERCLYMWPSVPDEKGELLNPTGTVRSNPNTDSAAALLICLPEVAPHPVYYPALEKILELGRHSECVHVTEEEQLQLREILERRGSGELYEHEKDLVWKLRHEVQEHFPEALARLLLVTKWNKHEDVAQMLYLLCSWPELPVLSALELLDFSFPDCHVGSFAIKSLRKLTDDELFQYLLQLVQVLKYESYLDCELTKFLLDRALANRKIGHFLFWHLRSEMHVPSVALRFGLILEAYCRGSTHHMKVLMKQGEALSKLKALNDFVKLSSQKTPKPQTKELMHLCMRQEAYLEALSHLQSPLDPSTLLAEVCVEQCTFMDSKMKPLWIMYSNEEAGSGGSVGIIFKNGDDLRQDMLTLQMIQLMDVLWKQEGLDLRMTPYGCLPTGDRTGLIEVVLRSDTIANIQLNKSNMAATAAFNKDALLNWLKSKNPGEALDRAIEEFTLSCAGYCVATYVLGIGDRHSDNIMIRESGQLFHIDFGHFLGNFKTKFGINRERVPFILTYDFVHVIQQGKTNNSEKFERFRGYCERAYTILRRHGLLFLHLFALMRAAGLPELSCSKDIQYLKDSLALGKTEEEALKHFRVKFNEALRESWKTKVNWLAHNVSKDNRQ
T1 sequence (P27986 whole entry partner): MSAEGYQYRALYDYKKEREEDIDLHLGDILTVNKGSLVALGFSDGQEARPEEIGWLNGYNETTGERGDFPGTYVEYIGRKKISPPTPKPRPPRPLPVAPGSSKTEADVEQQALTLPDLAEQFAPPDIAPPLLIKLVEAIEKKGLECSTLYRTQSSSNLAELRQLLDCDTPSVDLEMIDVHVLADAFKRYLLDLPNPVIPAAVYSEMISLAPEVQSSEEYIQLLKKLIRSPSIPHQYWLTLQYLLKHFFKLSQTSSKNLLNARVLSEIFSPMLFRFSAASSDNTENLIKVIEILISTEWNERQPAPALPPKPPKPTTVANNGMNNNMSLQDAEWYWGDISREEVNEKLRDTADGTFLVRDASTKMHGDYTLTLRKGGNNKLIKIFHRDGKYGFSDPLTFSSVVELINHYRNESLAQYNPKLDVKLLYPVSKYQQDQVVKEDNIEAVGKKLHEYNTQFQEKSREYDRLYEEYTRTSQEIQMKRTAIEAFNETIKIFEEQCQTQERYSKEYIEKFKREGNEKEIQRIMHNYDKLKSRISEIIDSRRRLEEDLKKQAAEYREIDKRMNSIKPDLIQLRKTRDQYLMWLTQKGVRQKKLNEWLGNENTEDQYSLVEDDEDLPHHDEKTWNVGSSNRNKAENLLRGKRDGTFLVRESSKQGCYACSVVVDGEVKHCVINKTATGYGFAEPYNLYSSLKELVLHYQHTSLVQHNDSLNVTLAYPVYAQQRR

Row | SMILES | pIC50
1 | CC(Nc1nc(N)nc(N)c1C#N)c1nc2cccc(F)c2c(=O)n1-c1cc(C(F)F)cc(C(F)F)c1 (single isomer, unassigned) [Compound 136a] | < 7.30
2 | N#Cc1c(N)nc(N)nc1NC(CC(F)(F)F)c1nc2ccc(F)cc2c(=O)n1-c1cc(F)cc(F)c1 (single isomer, unassigned) [Compound 133a] | < 7.30
3 | CC(Nc1nc(N)nc(N)c1C#N)c1nc2cccc(Cl)c2c(=O)n1-c1cc(C#N)cc(C#N)c1 (single isomer, unassigned) [Compound 87a] | < 7.30
4 | CC(Nc1nc(N)nc(N)c1C#N)c1nc2cccc(F)c2c(=O)n1-c1cc(Cl)cc(C(F)F)c1 (single isomer, unassigned) [Compound 114a] | < 7.30
5 | N#Cc1c(N)nc(N)nc1NC(CC(F)(F)F)c1nc2cccc(Cl)c2c(=O)n1-c1cc(F)cc(F)c1 (single isomer, unassigned) [Compound 165a] | < 7.30
6 | N#Cc1c(N)nc(N)nc1NCc1nc2cc(F)c(F)cc2c(=O)n1-c1cc(F)cc(F)c1 [Compound 80, 2,4-diamino-6-((3-(3,5-difluorophenyl)-6,7-difluoro-4-oxo-3,4-dihydroquinazolin-2-yl)methylamino)pyrimidine-5-carbonitrile] | < 7.30
7 | N#Cc1c(N)nc(N)nc1NC(CC(F)(F)F)c1nc2cccc(F)c2c(=O)n1-c1cc(F)cc(F)c1 (single isomer, unassigned) [Compound 166a] | < 7.30
8 | CC(Nc1nc(N)nc(N)c1C#N)c1nc2cccc(C#N)c2c(=O)n1-c1cc(F)cc(C#N)c1 (single isomer, unassigned) [Compound 113a] | < 7.30
9 | CC(Nc1nc(N)nc(N)c1C#N)c1nc2cccc(F)c2c(=O)n1-c1cc(F)cc(C(F)(F)F)c1 (single isomer, unassigned) [Compound 33a] | < 7.30
10 | COc1cccc2c(=O)n(-c3cc(F)cc(F)c3)c(C(C)Nc3nc(N)nc(N)c3C#N)nc12 (single isomer, unassigned) [Compound 68a] | < 7.30
11 | CC(Nc1nc(N)nc(N)c1C#N)c1nc2ccc(Cl)c(F)c2c(=O)n1-c1cc(F)cc(F)c1 (single isomer, unassigned) [Compound 85a] | < 7.30
12 | N#Cc1c(N)nc(N)nc1NC(CC(F)(F)F)c1nc2ccc(F)cc2c(=O)n1-c1ccccc1 (single isomer, unassigned) [Compound 132a] | < 7.30
13 | COc1cc(F)cc(-n2c(C(C)Nc3nc(N)nc(N)c3C#N)nc3cccc(Cl)c3c2=O)c1C (single isomer, unassigned) [Compound 110a-1] | < 7.30
14 | CCC(Nc1nc(N)nc(N)c1C#N)c1nc2ccc(Cl)c(F)c2c(=O)n1-c1cc(F)cc(F)c1 (single isomer, unassigned) [Compound 86a] | < 7.30
15 | CC(Nc1nc(N)nc(N)c1S(C)(=O)=O)c1nc2cccc(Cl)c2c(=O)n1-c1cc(F)cc(F)c1 (single isomer, unassigned) [Compound 94a] | < 7.30
16 | CC(Nc1nc(N)nc(N)c1C#N)c1nc2c(C(F)(F)F)cccc2c(=O)n1-c1cc(F)cc(F)c1 (single isomer, unassigned) [Compound 34a] | < 7.30
17 | CCC(Nc1nc(N)nc(N)c1Cl)c1nc2cccc(F)c2c(=O)n1-c1cc(F)cc(F)c1 (single isomer, unassigned) [Compound 105a] | < 7.30
18 | N#Cc1cccc(-n2c(CNc3nc(N)nc(N)c3C#N)nc3c(Cl)cccc3c2=O)c1 [Compound 84, 2,4-diamino-6-((8-chloro-3-(3-cyanophenyl)-4-oxo-3,4-dihydroquinazolin-2-yl)methylamino)pyrimidine-5-carbonitrile] | < 7.30
19 | COc1cccc(-n2c(C(C)Nc3nc(N)nc(N)c3C#N)nc3cccc(Cl)c3c2=O)c1C (single isomer, unassigned) [Compound 109a-1] | 7.30 to 8.00
20 | CC(Nc1nc(N)nc(N)c1C#N)c1nc2cccc(F)c2c(=O)n1-c1cc(C(F)(F)F)cc(C(F)(F)F)c1 (single isomer, unassigned) [Compound 88a] | < 7.30
21 | CC(Nc1nc(N)nc(N)c1C#N)c1nc2cccc(C(=O)O)c2c(=O)n1-c1ccccc1 (single isomer, unassigned) [Compound 162a, 2-(1-((2,6-diamino-5-cyanopyrimidin-4-yl)amino)ethyl)-4-oxo-3-phenyl-3,4-dihydroquinazoline-5-carboxylic acid] | < 7.30
22 | CC(Nc1nc(N)nc(N)c1C#N)c1nc2cccc(F)c2c(=O)n1-c1cc(C(F)F)cc(C(F)F)c1 (single isomer, unassigned) [Compound 118a] | < 7.30
23 | CCC(Nc1nc(N)nc(N)c1C#N)c1nc2c(F)cc(F)cc2c(=O)n1-c1cc(F)cc(F)c1 (single isomer, unassigned) [Compound 69a] | 7.30 to 8.00
24 | CC(Nc1nc(N)nc(N)c1C#N)c1nc2ccc(C#N)cc2c(=O)n1-c1ccccc1 (single isomer, unassigned) [Compound 159a] | < 7.30
25 | CCC(Nc1nc(N)nc(N)c1C#N)c1nc2cccc(F)c2c(=O)n1-c1cc(F)cc(C(F)F)c1 (single isomer, unassigned) [Compound 65a] | 7.30 to 8.00

Results, then the molecule that gave them:

Row | pIC50 | SMILES
26 | 7.30 to 8.00 | CC(Nc1nc(N)nc(N)c1C#N)c1nc2cc(F)c(F)cc2c(=O)n1-c1cc(F)cc(F)c1 (single isomer, unassigned) [Compound 79a]
27 | 7.30 to 8.00 | CC(Nc1nc(N)nc(N)c1C#N)c1nc2c(C(F)F)cccc2c(=O)n1-c1cc(F)cc(F)c1 (single isomer, unassigned) [Compound 57a]
28 | 7.30 to 8.00 | Cc1ccc(F)c2c(=O)n(-c3cc(F)cc(C#N)c3)c(C(C)Nc3nc(N)nc(N)c3C#N)nc12 (single isomer, unassigned) [Compound 83a]
29 | 8.00 to 9.00 | Cc1c(-n2c(C(C)Nc3nc(N)nc(N)c3C#N)nc3cccc(Cl)c3c2=O)ccc(F)c1F (single isomer, unassigned) [Compound 204a-2]
30 | 7.30 to 8.00 | Cc1c(-n2c(C(C)Nc3nc(N)nc(N)c3C#N)nc3cccc(Cl)c3c2=O)ccc(F)c1F (single isomer, unassigned) [Compound 204a-1]
31 | 7.30 to 8.00 | CCC(Nc1nc(N)nc(N)c1C#N)c1nc2ccc(F)c(F)c2c(=O)n1-c1cc(F)cc(F)c1 (single isomer, unassigned) [Compound 30a]
32 | 7.30 to 8.00 | CC(Nc1nc(N)nc(N)c1C#N)c1nc2cccc(F)c2c(=O)n1-c1cc(F)cc(C#N)c1 (single isomer, unassigned) [Compound 32a]
33 | 7.30 to 8.00 | Cc1cccc2c(=O)n(-c3cccc(C(F)(F)F)c3)c(C(C)Nc3nc(N)nc(N)c3C#N)nc12 (single isomer, unassigned) [Compound 39a]
34 | 7.30 to 8.00 | CC(Nc1nc(N)nc(N)c1C#N)c1nc2cccc(C#N)c2c(=O)n1-c1cc(F)cc(C(F)F)c1 (single isomer, unassigned) [Compound 138a]
35 | > 9.00 | CC(Nc1nc(N)nc(N)c1C#N)c1nc2cccc(Br)c2c(=O)n1-c1cccc(F)c1 (single isomer, unassigned) [Compound 130a]
36 | 7.30 to 8.00 | CCc1cccc2c(=O)n(-c3cc(F)cc(F)c3)c(C(C)Nc3nc(N)nc(N)c3C#N)nc12 (single isomer, unassigned) [Compound 103a]
37 | 7.30 to 8.00 | CCC(Nc1nc(N)nc(N)c1C#N)c1nc2cccc(F)c2c(=O)n1-c1cccc(C(F)(F)F)c1 (single isomer, unassigned) [Compound 46a]
38 | 8.00 to 9.00 | COc1cc(F)cc(-n2c(C(C)Nc3nc(N)nc(N)c3C#N)nc3cccc(Cl)c3c2=O)c1C (single isomer, unassigned) [Compound 110a-2]
